Measured values as given in patent US20180200257A1, “METHODS FOR THE TREATMENT OF INFLAMMATORY DISORDERS” (Galapagos NV, priority 2015, published 2018).

Tested on: subjects with moderately to severely active RA who have an inadequate response to methotrexate (MTX)
Experiment: Study 1 (add-on to MTX) - Aspartate Aminotransferase (AST) levels
Assay type: in vivo, human
Conditions: 24 weeks results
Method: Double-blind, placebo-controlled add on study in subjects with moderately to severely active RA who have an inadequate response to methotrexate (MTX) (oral or parenteral).
595 subjects randomized to one of 6 dose regimens of Compound 1 (dosed as [Compound 1:HCl:3H2O]) (3 dose levels administered either once or twice daily) or placebo on top of each subject's stable dose of MTX.
Compound 1 (dosed as [Compound 1:HCl:3H2O]) is dosed for twelve weeks once daily (q.d.) (50 mg, 100 mg or 200 mg) or twice daily (b.i.d.) (25 mg, 50 mg or 100 mg); or placebo.
At Week 12, the subjects on placebo who have not achieved 20% improvement in swollen joint count (SJC66) and tender joint count (TJC68) are re-randomized automatically to receive Compound 1 (dosed as a [Compound 1:HCl:3H2O]) either at 100 mg q.d. or 50 mg b.i.d. doses in a blinded fashion; subjects on 50 mg q.d. who have not achieved 20% improvement in SJC66 and TJC68 will be assigned to 100 mg q.d. and subjects on 25 mg b.i.d. that have not achieved a 20% improvement in SJC66 and TJC68 will be assigned to 50 mg b.i.d. Subjects who switch treatment at week 12 are handled as if they discontinued at week 12 for the purpose of statistical analysis, whereas subjects in the other groups will maintain their randomized treatment until Week 24.
AST levels determination is available at Quest Diagnostics, Clinical Trials, Quest House, 125-135 Staines Road, Hounslow, Middlesex, TW3 3JB, United Kingdom under Catalogue n#84450. For Study 3, the data are obtained at BARC Europe, 3B,Industrie Park, Zwijnaarde, B-9052 Ghent, Belgium.
AST catalyzes the transamination of aspartate and 2-oxoglutarate, forming L-glutamate and oxalacetate. The oxalacetate is reduced to L-malate by malate dehydrogenase, whilst NADH is converted to NAD+, measured spectrophotometrically. Guidelines for the AST value have been issued by the association for Clinical Biochemistry and Laboratory Medicine, 130-132 Tooley Street LONDON SE1 2TU, united Kingdom, wherein the AST value should be below 34 U/l in Female and below 45 U/L in male. As disclosed in the respective study protocols for Study 1 or 2, at week 12, depending on the outcome of their treatment, the subjects may be continued in their initial treatment course, or reassigned to another treatment group in a randomized blinded fashion until week 24. Therefore, the number of subjects (N) for the period of either 12 weeks, or 24 weeks is provided to reflect this redistribution at week 12.

[1] = continued 100 mg b.i.d., week 1
[2] = continued 100 mg b.i.d., week 2
[3] = continued 100 mg b.i.d., week 4
[4] = continued 100 mg b.i.d., week 8
[5] = continued 100 mg b.i.d., week 12
[6] = continued 100 mg b.i.d., week 16
[7] = continued 100 mg b.i.d., week 20
[8] = continued 100 mg b.i.d., week 24
[9] = from 25 mg b.i.d. to 50 mg b.i.d. at 12 weeks, week 1
[10] = from 25 mg b.i.d. to 50 mg b.i.d. at 12 weeks, week 2
[11] = from 25 mg b.i.d. to 50 mg b.i.d. at 12 weeks, week 4
[12] = from 25 mg b.i.d. to 50 mg b.i.d. at 12 weeks, week 8
[13] = from 25 mg b.i.d. to 50 mg b.i.d. at 12 weeks, week 12
[14] = from 25 mg b.i.d. to 50 mg b.i.d. at 12 weeks, week 16
[15] = from 25 mg b.i.d. to 50 mg b.i.d. at 12 weeks, week 20
[16] = from 25 mg b.i.d. to 50 mg b.i.d. at 12 weeks, week 24
[17] = from 50 mg q.d. to 100 mg q.d. at 12 weeks, week 1
[18] = from 50 mg q.d. to 100 mg q.d. at 12 weeks, week 2
[19] = from 50 mg q.d. to 100 mg q.d. at 12 weeks, week 4
[20] = from 50 mg q.d. to 100 mg q.d. at 12 weeks, week 8
[21] = from 50 mg q.d. to 100 mg q.d. at 12 weeks, week 12
[22] = from 50 mg q.d. to 100 mg q.d. at 12 weeks, week 16
[23] = from 50 mg q.d. to 100 mg q.d. at 12 weeks, week 20
[24] = from 50 mg q.d. to 100 mg q.d. at 12 weeks, week 24
[25] = placebo switched to 50 mg b.i.d. at week 12, week 16
[26] = placebo switched to 50 mg b.i.d. at week 12, week 20
[27] = placebo switched to 50 mg b.i.d. at week 12, week 24
[28] = placebo switched to 100 mg q.d. at week 12, week 16
[29] = placebo switched to 100 mg q.d. at week 12, week 20
[30] = placebo switched to 100 mg q.d. at week 12, week 24

O=C(Nc1nc2cccc(-c3ccc(CN4CCS(=O)(=O)CC4)cc3)n2n1)C1CC1 [Compound 1, cyclopropanecarboxylic acid {5-[4-(1,1-dioxo-thiomorpholin-4-ylmethyl)-phenyl]-[1,2,4]triazolo[1,5-a]pyridin-2-yl}-amide]
Study 1 - AST Mean CFB (continued 50 mg q.d., week 12): 0.6 IU/L | Study 1 - AST Mean percentage CFB (continued 50 mg q.d., week 12): 11.4% | Study 1 - AST Mean CFB (continued 50 mg q.d., week 16): 1.4 IU/L | Study 1 - AST Mean percentage CFB (continued 50 mg q.d., week 16): 15.1% | Study 1 - AST Mean CFB (continued 50 mg q.d., week 20): 2.1 IU/L | Study 1 - AST Mean percentage CFB (continued 50 mg q.d., week 20): 16.8% | Study 1 - AST Mean CFB (continued 50 mg q.d., week 24): 1.0 IU/L | Study 1 - AST Mean percentage CFB (continued 50 mg q.d., week 24): 12.9% | Study 1 - AST Mean CFB [1]: 1.4 IU/L | Study 1 - AST Mean percentage CFB [1]: 10.0% | Study 1 - AST Mean CFB [2]: 2.3 IU/L | Study 1 - AST Mean percentage CFB [2]: 14.1% | Study 1 - AST Mean CFB [3]: 2.6 IU/L | Study 1 - AST Mean percentage CFB [3]: 19.1% | Study 1 - AST Mean CFB [4]: 1.9 IU/L | Study 1 - AST Mean percentage CFB [4]: 17.4% | Study 1 - AST Mean CFB [5]: 2.5 IU/L | Study 1 - AST Mean percentage CFB [5]: 20.1% | Study 1 - AST Mean CFB [6]: 3.5 IU/L | Study 1 - AST Mean percentage CFB [6]: 25.2% | Study 1 - AST Mean CFB [7]: 3.0 IU/L | Study 1 - AST Mean percentage CFB [7]: 23.1% | Study 1 - AST Mean CFB [8]: 5.0 IU/L | Study 1 - AST Mean percentage CFB [8]: 37.6% | Study 1 - AST Mean CFB (continued 100 mg q.d., week 1): 3.0 IU/L | Study 1 - AST Mean percentage CFB (continued 100 mg q.d., week 1): 13.5% | Study 1 - AST Mean CFB (continued 100 mg q.d., week 2): 1.0 IU/L | Study 1 - AST Mean percentage CFB (continued 100 mg q.d., week 2): 9.4% | Study 1 - AST Mean CFB (continued 100 mg q.d., week 4): 1.6 IU/L | Study 1 - AST Mean percentage CFB (continued 100 mg q.d., week 4): 11.2% | Study 1 - AST Mean CFB (continued 100 mg q.d., week 8): 2.8 IU/L | Study 1 - AST Mean percentage CFB (continued 100 mg q.d., week 8): 17.1% | Study 1 - AST Mean CFB (continued 100 mg q.d., week 12): 2.4 IU/L | Study 1 - AST Mean percentage CFB (continued 100 mg q.d., week 12): 15.7% | Study 1 - AST Mean CFB (continued 100 mg q.d., week 16): 1.5 IU/L | Study 1 - AST Mean percentage CFB (continued 100 mg q.d., week 16): 11.5% | Study 1 - AST Mean CFB (continued 100 mg q.d., week 20): 2.6 IU/L | Study 1 - AST Mean percentage CFB (continued 100 mg q.d., week 20): 19.2% | Study 1 - AST Mean CFB (continued 100 mg q.d., week 24): 4.4 IU/L | Study 1 - AST Mean percentage CFB (continued 100 mg q.d., week 24): 28.6% | Study 1 - AST Mean CFB (continued 200 mg q.d., week 1): 3.1 IU/L | Study 1 - AST Mean percentage CFB (continued 200 mg q.d., week 1): 16.1% | Study 1 - AST Mean CFB (continued 200 mg q.d., week 2): 1.9 IU/L | Study 1 - AST Mean percentage CFB (continued 200 mg q.d., week 2): 12.8% | Study 1 - AST Mean CFB (continued 200 mg q.d., week 4): 2.7 IU/L | Study 1 - AST Mean percentage CFB (continued 200 mg q.d., week 4): 18.7% | Study 1 - AST Mean CFB (continued 200 mg q.d., week 8): 4.5 IU/L | Study 1 - AST Mean percentage CFB (continued 200 mg q.d., week 8): 27.2% | Study 1 - AST Mean CFB (continued 200 mg q.d., week 12): 4.8 IU/L | Study 1 - AST Mean percentage CFB (continued 200 mg q.d., week 12): 28.8% | Study 1 - AST Mean CFB (continued 200 mg q.d., week 16): 6.8 IU/L | Study 1 - AST Mean percentage CFB (continued 200 mg q.d., week 16): 36.8% | Study 1 - AST Mean CFB (continued 200 mg q.d., week 20): 4.0 IU/L | Study 1 - AST Mean percentage CFB (continued 200 mg q.d., week 20): 23.3% | Study 1 - AST Mean CFB (continued 200 mg q.d., week 24): 5.2 IU/L | Study 1 - AST Mean percentage CFB (continued 200 mg q.d., week 24): 30.6% | Study 1 - AST Mean CFB [9]: −5.0 IU/L | Study 1 - AST Mean percentage CFB [9]: −12.5% | Study 1 - AST Mean CFB [10]: −2.3 IU/L | Study 1 - AST Mean percentage CFB [10]: −0.7% | Study 1 - AST Mean CFB [11]: −2.9 IU/L | Study 1 - AST Mean percentage CFB [11]: −2.7% | Study 1 - AST Mean CFB [12]: −4.1 IU/L | Study 1 - AST Mean percentage CFB [12]: −7.2% | Study 1 - AST Mean CFB [13]: −1.0 IU/L | Study 1 - AST Mean percentage CFB [13]: 4.5% | Study 1 - AST Mean CFB [14]: −3.3 IU/L | Study 1 - AST Mean percentage CFB [14]: −2.3% | Study 1 - AST Mean CFB [15]: −0.6 IU/L | Study 1 - AST Mean percentage CFB [15]: 8.2% | Study 1 - AST Mean CFB [16]: 0.6 IU/L | Study 1 - AST Mean percentage CFB [16]: 14.2% | Study 1 - AST Mean CFB [17]: 0.3 IU/L | Study 1 - AST Mean percentage CFB [17]: 5.0% | Study 1 - AST Mean CFB [18]: 0.0 IU/L | Study 1 - AST Mean percentage CFB [18]: 3.4% | Study 1 - AST Mean CFB [19]: −0.5 IU/L | Study 1 - AST Mean percentage CFB [19]: 3.6% | Study 1 - AST Mean CFB [20]: −0.4 IU/L | Study 1 - AST Mean percentage CFB [20]: 3.0% | Study 1 - AST Mean CFB [21]: 0.1 IU/L | Study 1 - AST Mean percentage CFB [21]: 4.2% | Study 1 - AST Mean CFB [22]: −0.9 IU/L | Study 1 - AST Mean percentage CFB [22]: −0.2% | Study 1 - AST Mean CFB [23]: 0.4 IU/L | Study 1 - AST Mean percentage CFB [23]: 4.9% | Study 1 - AST Mean CFB [24]: −1.7 IU/L | Study 1 - AST Mean percentage CFB [24]: −2.5% | Study 1 - AST Mean CFB [25]: 2.1 IU/L | Study 1 - AST Mean percentage CFB [25]: 14.9% | Study 1 - AST Mean CFB [26]: −0.1 IU/L | Study 1 - AST Mean percentage CFB [26]: 1.9% | Study 1 - AST Mean CFB [27]: 3.5 IU/L | Study 1 - AST Mean percentage CFB [27]: 19.7% | Study 1 - AST Mean CFB [28]: 1.3 IU/L | Study 1 - AST Mean percentage CFB [28]: 1.0% | Study 1 - AST Mean CFB [29]: 1.2 IU/L | Study 1 - AST Mean percentage CFB [29]: 9.8% | Study 1 - AST Mean CFB [30]: 3.2 IU/L | Study 1 - AST Mean percentage CFB [30]: 23.1%
